Experimental data from patent US7537765B2, “Inhibition of HIV-1 replication by disruption of the processing of the viral capsid-spacer peptide 1 protein” (priority 2003, dated 2009).
Entries after “also recorded” stand apart in the source; their conditions may differ. Like-named read-outs stand apart in the source and are kept apart here.

Columns and labels:
SIVmac239 chimeric virus = experiment: Gag processing of SIVmac239 chimeric mutants with HIV-1 CA-SP1 residues (Western blot); format: cell-based; conditions: SIV DM chimeric virus (printed SWV.DM), 1 μg/ml
Text: A panel of SIV chimeric constructs harboring various residues of NL4-3 CA-SP1 boundary region was generated using the SIVmac239 molecular clone by employing PCR and cloning procedures described above. SIV mac239 was used to generate the SIV DD and DE constructs. The SIV DD construct was used to generate SIV DM. Different SIV chimeric constructs were produced in the PCR by varying respective mutagenic upstream and downstream primers corresponding to each chimera (Table 1). Each of these parallel two adjacent PCR fragments was gel purified and directly used without phospohorylation treatment for a subsequent amplification with universal upstream primer (Primer. 31) and downstream primer (Primer 32). This product was gel purified, digested with BamHI and SbfI, and then ligated into the BamHI and SbfI sites of SIVmac239 proviral DNA clone. The proviral DNA clones were then screened by automatically sequencing using a Taq Dye Deoxy Terminator cycle Sequencer Kit (Applied Biosystems) individually using an internal primer (Primer. 39). Following the verification the mutations the proviral DNA clones were used for various future studies. […]
Residues A364 through V370 were inserted into the analogous position of the Gag SP1 domain in the DSB-resistant retrovirus SIV (Mac 239 isolate). […] Next, the effect of DSB on the Gag processing phenotype of each of the chimeric viruses was determined. […]

HIV-1 protease [1] = biological target: T1, HIV-1 protease (Human immunodeficiency virus type 1 group M subtype B, UniProt P12497); format: biochemical; conditions: recombinant Gag, 50 μg/mL
[2] = test system: primary Clade B HIV-1 isolates; experiment: Virus inhibition assay, primary HIV-1 isolates in PBMC, p24 endpoint; format: cell-based
Method: A robust virus inhibition assay was used to evaluate the anti-viral activity of DSB against primary HIV-1 isolates propagated in PMBC. Briefly, serial dilutions of DSB were made in medium into 96-well tissue culture plates. 25-250 TCID50 of virus and 5×10^5 PHA-stimulated PBMCs were added to each well. On days 1, 3 and 5 post-infection, media was removed from each well and replaced with fresh media containing DSB at the appropriate concentration. On day 7 post-infection, culture supernatant was removed from each well for p24 detection of virus replication and 50% inhibitory concentrations (IC50) were calculated by standard methods.

HIV-1 protease [3] = biological target: T1, HIV-1 protease; experiment: Cell-free fluorometric protease assay, synthetic peptide substrate; format: biochemical; design: DSB had no effect on HIV-1 protease function using a cell-free fluorometric assay; conditions: concentrations up to 50 μg/mL
Method: It was previously determined that DSB had no effect on HIV-1 protease function using a cell-free fluorometric assay that characterized enzyme activity by following the cleavage of a synthetic peptide substrate. […] As a result of the observation that DSB blocks virus replication at a late step, studies were also performed using a recombinant form of the Gag protein, which is a more relevant system than the synthetic peptide substrate used in the initial assays.

[4] = test system: HIV-1 isolates selected for resistance to DSB; experiment: Virus replication assay in H9 cells (p24 ELISA), DSB-resistant and parental viruses; format: cell-based
Method: Virus stocks derived as described above were further analyzed both phenotypically and genotypically to characterize the nature of their drug-resistance. The resistance of the viruses to 3-O-(3′,3′-dimethylsuccinyl)-betulinic acid (DSB) was determined in virus replication assays. Briefly, the virus stocks were first titered in H9 cells by quantitating the levels of p24 (by ELISA) in cultures 8 days after infection with serial 4-fold dilutions of virus. Virus input was then normalized for a second assay in which each virus is cultured for 8 days in the presence of serial 4-fold dilutions of drug. The IC50 for each virus was determined as the dilution of drug that reduced the p24 endpoint level by 50% as compared to the no-drug control. […] In a subsequent series of experiments, the A364V mutation was engineered into the HIV-1 NL4-3 proviral DNA, which was subsequently transfected into HeLa cells. Resulting virus was collected and used to test the activity of DSB in a viral replication assay, as described above.

[5] = test system: HIV-1 infected MAGI cells; format: cell-based; conditions: HIV-1 infected MAGI cells
Text: To distinguish the inhibitory activity of DSB against early and late replication targets, a multinuclear activation of a galactosidase indicator (MAGI) assay was used. In this assay, the targets are HeLa cells stably expressing CD4, CXCR4, CCR5 and a reporter construct consisting of the—galactosidase gene (modified to localize to the nucleus) driven by a truncated HIV-1 LTR. Infection of these cells results in expression of Tat that drives activation of the β-galactosidase reporter gene. Expression of β-galactosidase in infected cells is detected using the chromogenic substrate X-gal.

Question: What does the source list for `C=C(C)[C@@H]1CC[C@]2(C(=O)O)CC[C@]3(C)[C@H](CC[C@@H]4[C@@]5(C)CC[C@H](OC(=O)CC(C)(C)C(=O)O)C(C)(C)[C@@H]5CC[C@]43C)[C@@H]12` [DSB, 3-O-(3′,3′-dimethylsuccinyl)betulinic acid]?
Answer: Gag processing phenotype (SIVmac239 chimeric virus): indicative of sensitivity to DSB; effect on protease-mediated Gag protein processing (HIV-1 protease [1]): did not disrupt protease-mediated Gag protein processing; also recorded: does not disrupt the activity of HIV-1 protease; IC50 ([2]; isolate 92HT599, co-receptor X4, PBMC, p24 day 7, read-out: IC50): 9.8 nM; IC50 ([2]; isolate 92US723, co-receptor R5/X4, PBMC, p24 day 7, read-out: IC50): 4.6 nM; IC50 ([2]; isolate 3401N*, co-receptor R5/X4, PBMC, p24 day 7, read-out: IC50): 12 nM; IC50 ([2]; isolate 19101N*, co-receptor R5, PBMC, p24 day 7, read-out: IC50): 3.8 nM; IC50 ([2]; isolate 22101N*, co-receptor R5/X4, PBMC, p24 day 7, read-out: IC50): 2.6 nM; IC50 ([2]; isolate BZ167, co-receptor X4, PBMC, p24 day 7, read-out: IC50): 4 nM; IC50 ([2]; isolate US1, co-receptor R5, PBMC, p24 day 7, read-out: IC50): 5.6 nM; IC50 ([2]; mean over the panel of primary isolates, read-out: IC50, Mean): 6.1 nM; effect on HIV-1 protease function (HIV-1 protease [3]): no effect on protease function; IC50 ([4]; NL4-3 with engineered A364V mutation (DSB-resistant virus)): 100 nM; IC50 ([4]; two independently derived DSB-selected virus stocks): > 2000 nM; IC50 ([4]; virus cultured in parallel in the absence of drug): 20 nM; IC50 ([4]; wild-type NL4-3): 10 nM; % Decrease (β-galactosidase expression) [5]: 12%
